Here are results for 23 compounds from US8487108B2, “Piperidinyl carbamate intermediates for the synthesis of aspartic protease inhibitors” (Vitae Pharmaceuticals, Inc., priority 2005, dated 2013).

A word on the IC50: it is the point on the concentration scale where inhibition reaches its midpoint.

This assay has as its target T1, trypsin-activated recombinant human renin (Homo sapiens, UniProt P00797).
T1 sequence (P00797 67-406): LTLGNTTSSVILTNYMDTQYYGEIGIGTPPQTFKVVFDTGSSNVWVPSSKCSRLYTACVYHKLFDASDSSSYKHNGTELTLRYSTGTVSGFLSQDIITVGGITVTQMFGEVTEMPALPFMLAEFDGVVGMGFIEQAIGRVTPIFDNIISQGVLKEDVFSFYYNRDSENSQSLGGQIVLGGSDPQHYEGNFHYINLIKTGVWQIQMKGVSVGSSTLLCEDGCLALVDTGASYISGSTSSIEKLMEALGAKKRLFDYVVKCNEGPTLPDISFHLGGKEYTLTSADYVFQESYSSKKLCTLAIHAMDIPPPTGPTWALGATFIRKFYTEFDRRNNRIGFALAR
As to the kind of experiment: Renin fluorescence assay (internally quenched peptide substrate). It counts as biochemical. As to conditions: compounds I*. The method, then:
The sequence of this peptide corresponds to the sequence of human angiotensinogen. The following test protocol can be used. All reactions are carried out in a flat bottom white opaque microtiter plate. A 4 μL aliquot of 400 μM renin substrate (DABCYL-γ-[…]) in 192 μL assay buffer (50 mM BES, 150 mM NaCl, 0.25 mg/mL bovine serum albumin, pH7.0) is added to 4 μL of test compound in DMSO at various concentrations ranging from 10 μM to 1 nM final concentrations. Next, 100 μL of trypsin-activated recombinant human renin (final enzyme concentration of 0.2-2 nM) in assay buffer is added, and the solution is mixed by pipetting. The increase in fluorescence at 495 nm (excitation at 340 nm) is measured for 60-360 minutes at rt using a Perkin-Elmer Fusion microplate reader. The slope of a linear portion of the plot of fluorescence-increase as a function of time is then determined, and the rate is used for calculating percent inhibition in relation to uninhibited control. […] (Wang G. T. et al. Anal. Biochem. 1993, 210, 351; Nakamura, N. et al. J. Biochem. (Tokyo) 1991, 109, 741; Murakami, K. et al. Anal Biochem. 1981, 110, 232).

For `CNC[C@H](CC1CCOCC1)NC(=O)N1CCCC[C@@H]([C@@H](OCCNC(=O)OC)c2cccc(Cl)c2)C1` [I*-108a, methyl 2-((R)-(3-chlorophenyl)((R)-1-((S)-1-(methylamino)-3-(tetrahydro-2H-pyran-4-yl)propan-2-ylcarbamoyl)azepan-3-yl)methoxy)ethylcarbamate], the IC50 was below 50 nM.
The figure for `CCC[C@](OCCNC(=O)OC)(c1cccc(Cl)c1)[C@@H]1CCCN(C(=O)N[C@H](CNC)CC2CCCCC2)C1` [I*-150a, methyl 2-((R)-1-(3-chlorophenyl)-1-((R)-1-((S)-1-cyclohexyl-3-(methylamino)propan-2-ylcarbamoyl)piperidin-3-yl)butoxy)ethylcarbamate] is below 50 nM; for `CNC[C@H](CC1CCCCC1)NC(=O)N1CCC[C@@H](C(OCCNC(=O)OC)c2cc(Cl)ccc2F)C1` (stereo partly drawn) [I*-116a, methyl 2-((5-chloro-2-fluorophenyl)((R)-1-((S)-1-cyclohexyl-3-(methylamino)propan-2-ylcarbamoyl)piperidin-3-yl)methoxy)ethylcarbamate] it is below 10 nM.
With `CNC[C@@H](NC(=O)N1CCC[C@@H]([C@@H](OCCNC(=O)OC)c2cc(Cl)ccc2C)C1)[C@@H](O)C1CCCC1` [I*-107a, methyl 2-((R)-(5-chloro-2-methylphenyl)((R)-1-((1S,2R)-1-cyclopentyl-1-hydroxy-3-(methylamino)propan-2-ylcarbamoyl)piperidin-3-yl)methoxy)ethylcarbamate] the figure was below 10 nM.
With `CNC[C@H](CC1CCCCC1)NC(=O)N1CCC[C@@H]([C@H](OCCNC(=O)OC)c2nccs2)C1` [I*-12a, methyl 2-((S)-((R)-1-((S)-1-cyclohexyl-3-(methylamino)propan-2-ylcarbamoyl)piperidin-3-yl)(thiazol-2-yl)methoxy)ethylcarbamate] the figure was above 50 nM; with `CNC[C@H](C[C@H]1CCC2(CC2)OC1)NC(=O)N1CCC[C@@H]([C@@H](OCCNC(=O)OC)c2cccc(Cl)c2)C1` [I*-158a, methyl 2-((R)-(3-chlorophenyl)((R)-1-((S)-1-((R)-4-oxaspiro[2.5]octan-6-yl)-3-(methylamino)propan-2-ylcarbamoyl)piperidin-3-yl)methoxy)ethylcarbamate], below 10 nM.
`CNC[C@H](CC12CC3CC(CC1C3)C2)NC(=O)N1CCC[C@@H]([C@@](C)(OCCNC(=O)OC)c2cccc(Cl)c2)C1` [I*-151a, methyl 2-((R)-1-(3-chlorophenyl)-1-((3R)-1-((S)-1-(3-noradamantyl)-3-(methylamino)propan-2-ylcarbamoyl)piperidin-3-yl)ethoxy)ethylcarbamate]: the IC50 was below 1 nM.
Take `CNC[C@H](C[C@H]1CCC(C)(C)OC1)NC(=O)N1CCC[C@@H]([C@@H](OCCNC(=O)OC)c2ccccc2)C1` [I*-156a, methyl 2-((R)—((R)-1-((S)-1-((R)-6,6-dimethyl-tetrahydro-2H-pyran-3-yl)-3-(methylamino)propan-2-ylcarbamoyl)piperidin-3-yl)(phenyl)methoxy)ethylcarbamate]: the IC50 was below 20 nM.
With `CNC[C@H](CC1CCCOCC1)NC(=O)N1CCC[C@@H]([C@@H](OCCNC(=O)OC)c2cccc(F)c2)C1` (stereo partly drawn) [I*-47a, methyl 2-((R)-(3-fluorophenyl)((3R)-1-((S)-1-(methylamino)-3-(oxepan-4-yl)propan-2-ylcarbamoyl)piperidin-3-yl)methoxy)ethylcarbamate] the figure was below 10 nM; with `CNC[C@H](CC1CCCCCC1)NC(=O)N1CCC[C@@H]([C@@H](OCCNC(=O)OC)c2cccc(Cl)c2F)C1` [I*-135a, methyl 2-((R)-(3-chloro-2-fluorophenyl)((R)-1-((S)-1-cycloheptyl-3-(methylamino)propan-2-ylcarbamoyl)piperidin-3-yl)methoxy)ethylcarbamate], below 10 nM; with `COC(=O)NCCO[C@@H](c1cccc(Cl)c1)[C@@H]1CCCN(C(=O)N[C@](C)(CN)CC2CCCCC2)C1` [I*-59a, methyl 2-((R)-((R)-1-((S)-1-amino-3-cyclohexyl-2-methylpropan-2-ylcarbamoyl)piperidin-3-yl)(3-chlorophenyl)methoxy)ethylcarbamate], below 10 nM.
With `CNC[C@H](CC1CCC(F)(F)CC1)NC(=O)N1CCC[C@@H]([C@@H](OCCNC(=O)OC)c2cccc(Cl)c2)C1` [I*-146a, methyl 2-((R)-(3-chlorophenyl)((R)-1-((S)-1-(4,4-difluorocyclohexyl)-3-(methylamino)propan-2-ylcarbamoyl)piperidin-3-yl)methoxy)ethylcarbamate] the figure was below 1 nM.
As to `CNC[C@H](CC1CCCC1)NC(=O)N1CCC[C@@H]([C@@H](OCCNC(=O)OC)c2cccc(F)c2)C1` [I*-5a, methyl 2-((R)—((R)-1-((S)-1-cyclopentyl-3-(methylamino)propan-2-ylcarbamoyl)piperidin-3-yl)(3-fluorophenyl)methoxy)ethylcarbamate], the IC50 is below 10 nM.
With `CC[C@@H](N)[C@H](CC1CCCCC1)NC(=O)N1CCC[C@@H]([C@@H](OCCNC(=O)OC)c2cccc(Cl)c2)C1` [I*-83a, methyl 2-((R)-((R)-1-((2S,3R)-3-amino-1-cyclohexylpentan-2-ylcarbamoyl)piperidin-3-yl)(3-chlorophenyl)methoxy)ethylcarbamate] the figure was below 1 nM.
In the case of `CNC[C@H](CCC1(OC)CCCC1)NC(=O)N1CCC[C@@H]([C@@H](OCCNC(=O)OC)c2cc(F)cc(F)c2)C1` [I*-134a, methyl 2-((R)-(3,5-difluorophenyl)((R)-1-((S)-4-(1-methoxycyclopentyl)-1-(methylamino)butan-2-ylcarbamoyl)piperidin-3-yl)methoxy)ethylcarbamate], the IC50 was above 50 nM.
The figure for `CNC[C@H](CC1CCCCC1)NC(=O)N1CCC[C@H]([C@@H](OCCNC(=O)OC)c2c(C)ccc(F)c2F)C1` [I*-97a, methyl 2-((R)-((S)-1-((S)-1-cyclohexyl-3-(methylamino)propan-2-ylcarbamoyl)piperidin-3-yl)(2,3-difluoro-6-methylphenyl)methoxy)ethylcarbamate] is below 20 nM; for `COC(=O)NCCO[C@@H](c1cc(Cl)ccc1C)[C@@H]1CCCN(C(=O)NC[C@@H](N)C[C@H]2CCCCOC2)C1` [I*-109a, methyl 2-((R)-((R)-1-((S)-2-amino-3-((R)-oxepan-3-yl)propylcarbamoyl)piperidin-3-yl)(5-chloro-2-methylphenyl)methoxy)ethylcarbamate] it is below 1 nM.
With `CNC[C@H](C[C@H]1CCCOC1)NC(=O)N1CCCC[C@@H]([C@@H](OCCNC(=O)OC)c2cccc(F)c2)C1` [I*-56a, methyl 2-((R)-(3-fluorophenyl)((R)-1-((S)-1-(methylamino)-3-((R)-tetrahydro-2H-pyran-3-yl)propan-2-ylcarbamoyl)azepan-3-yl)methoxy)ethylcarbamate] the figure was below 10 nM; with `CNC[C@H](CC1CCCCC1)NC(=O)N1CCC[C@@H]([C@@H](OCCNC(=O)OC)c2cccs2)C1` [I*-9a, methyl 2-((R)-((R)-1-((S)-1-cyclohexyl-3-(methylamino)propan-2-ylcarbamoyl)piperidin-3-yl)(thiophen-2-yl)methoxy)ethylcarbamate], below 1 nM; with `CNCC(CC1CCCOC1)NC(=O)N1CCCC(C(O)(CCCNC(=O)OC)c2cccc(F)c2)C1` [I*-54a, methyl (S)-4-(3-fluorophenyl)-4-hydroxy-4-((3R)-1-((S)-1-(methylamino)-3-(tetrahydro-2H-pyran-3-yl)propan-2-ylcarbamoyl)piperidin-3-yl)butylcarbamate], below 50 nM.
In the case of `CNC[C@H](CC1CCCC1)NC(=O)N1CCC[C@@H]([C@@H](OCCNC(=O)OC)c2cc(F)ccc2C)C1` [I*-24a, methyl 2-((R)—((R)-1-((S)-1-cyclopentyl-3-(methylamino)propan-2-ylcarbamoyl)piperidin-3-yl)(5-fluoro-2-methylphenyl)methoxy)ethylcarbamate], the IC50 is below 1 nM.
The figure for `CNC[C@H](CC1CCOCC1)NC(=O)N1CCC[C@@H]([C@@H](OCCNC(=O)OC)c2cc(C)ccc2C)C1` [I*-37a, methyl 2-((R)-(2,5-dimethylphenyl)((R)-1-((S)-1-(methylamino)-3-(tetrahydro-2H-pyran-4-yl)propan-2-ylcarbamoyl)piperidin-3-yl)methoxy)ethylcarbamate] is below 20 nM; for `CN[C@H](C)[C@H](CC1CCCCC1)NC(=O)N1CCC[C@@H]([C@@H](OCCNC(=O)OC)c2cccc(Cl)c2)C1` [I*-82a, methyl 2-((R)-(3-chlorophenyl)((R)-1-((2S,3R)-1-cyclohexyl-3-(methylamino)butan-2-ylcarbamoyl)piperidin-3-yl)methoxy)ethylcarbamate] it is below 1 nM.
